Data as given in patent US4883758A, “Biologically pure culture of the microorganism Streptomycas tropolofaciens used for producing 3,7-dihydroxytropolone and antitumor use” (priority 1989, dated 1989).
Where two headings read alike, the source gives them in different places.

Columns and labels:
Melanoma B16 [1] = experiment: In vivo antitumor activity against melanoma B16 in mice, Exp. 2; set-up: species or system male BDF1 mice; murine tumor; details: for Average weight change on day 5: B16 Exp. 2, qd 1→9, ip
Protocol: (§1) BU-3129T (3,7-dihydroxytropolone) and its analogs were tested for in vitro cytotoxicity against logarithmically growing murine melanoma tumor cells in liquid culture. B16-F10 cells (4×10^4 cells) in the enriched MEM (Minimum essential medium (Eagle's)) containing test material solution were planted into wells of 96-well microtiter plates and incubated at 37° C., with 5% CO2 under high humidity for 72 hours. After staining with neutral red, cytotoxicity of test material was determined colorimetrically. The inhibitory effects on macromolecule biosynthesis were examined in cultured L1210 leukemia cells. L1210 cells (5×10^5 cells) were exposed to radioactive precursors (^3 H-thymidine, ^14 C-uridine and ^3 H-leucine) for 60 min after the treatment with test material for 15 min. The incorporated radioactivities into acid-insoluble fractions were measured by using a liquid scintillation counter. The in vivo antitumor activity of BU-3129T was determined in male BDF1 mice against leukemia P388 and melanoma B16. Leukemia P388 and melanoma B 16 were inoculated by the intraperitoneal injection at 10^6 cells and 0.5 ml of a 10% tumor brei per mouse, respectively. Test material was administered to mice intraperitoneally once daily through 1 to 9 days after tumor implantation. Tropolone and mitomycin C were comparatively tested in the experiments.

Leukemia P388 = type: in vivo, male BDF1 mice; murine tumor; details: for T/C: MST
Protocol: as §1

[2] = system: B16-F10 murine melanoma tumor cells; experiment: In vitro cytotoxicity against B16-F10 melanoma cells (72 h, neutral red); type: cell-based
Protocol: as §1

[3] = Kirst, et. al., J. Antibiotics 1982; cited from earlier work
Melanoma B16 [4] = experiment: In vivo antitumor activity against melanoma B16 in mice, Exp. 1; set-up: species or system male BDF1 mice; murine tumor; details: for T/C: MST
Protocol: as §1

[5] = B16 Exp. 1, 0.16 mg/kg/day, qd 1→9, ip
[6] = B16 Exp. 1, 0.31 mg/kg/day, qd 1→9, ip
[7] = B16 Exp. 1, 0.63 mg/kg/day, qd 1→9, ip
[8] = B16 Exp. 1, 1.3 mg/kg/day, qd 1→9, ip
[9] = B16 Exp. 1, 2.5 mg/kg/day, qd 1→9, ip
[10] = P388, 0.63 mg/kg/day, qd 1→9, ip
[11] = B16 Exp. 1, 0.1 mg/kg/day, qd 1→9, ip
[12] = B16 Exp. 1, 0.3 mg/kg/day, qd 1→9, ip
[13] = B16 Exp. 1, 1.0 mg/kg/day, qd 1→9, ip

O=c1cccccc1O [Tropolone]
Average weight change on day 5 (Melanoma B16 [1]; 1.0 mg/kg/day): +2.3 g | Average weight change on day 5 (Melanoma B16 [1]; 3.0 mg/kg/day): +2.5 g | Average weight change on day 5 (Melanoma B16 [1]; 10 mg/kg/day): +3.3 g | Average weight change on day 5 (Melanoma B16 [1]; 30 mg/kg/day): +2.0 g | Antitumor activity against melanoma B16 (in words) (Melanoma B16 [1]; at the doses tested): did not show any activity

O=c1c(O)cccc(O)c1O [BU-3129T, 3,7-dihydroxytropolone]
Antitumor activity against leukemia P388 (in words) (Leukemia P388; mice bearing murine tumors, ip): no activity | Potency in the in vitro cytotoxicity test [2]: most potent | Antimicrobial activity [3]: possesses antimicrobial activity | Average weight change on day 5 (Melanoma B16 [4]; [5]): +0.4 g | MST (Melanoma B16 [4]; [5]): 16.0 days | Average weight change on day 5 (Melanoma B16 [4]; [6]): +1.2 g | MST (Melanoma B16 [4]; [6]): 18.0 days | Average weight change on day 5 (Melanoma B16 [4]; [7]): +1.0 g | MST (Melanoma B16 [4]; [7]): 23.0 days | Average weight change on day 5 (Melanoma B16 [4]; [8]): +0.4 g | MST (Melanoma B16 [4]; [8]): 29.0 days | Average weight change on day 5 (Melanoma B16 [4]; [9]): -0.8 g | MST (Melanoma B16 [4]; [9]): 12.0 days | tox (Melanoma B16 [4]; B16 Exp. 1, 5.0 mg/kg/day, qd 1→9, ip): tox | T/C (Melanoma B16 [4]; [5]): 100% | T/C (Melanoma B16 [4]; [6]): 113% | T/C (Melanoma B16 [4]; [7]): 144% | T/C (Melanoma B16 [4]; [8]): 181% | T/C (Melanoma B16 [4]; [9]): 75% | Antitumor activity against melanoma B16 (in words) (Melanoma B16 [4]; mice bearing murine tumors, ip): significant antitumor activity | Inhibitory action against mammalian malignant tumors (in words) (Melanoma B16 [4]; overall conclusion from the data): marked inhibitory action

CO[C@@]12[C@H](COC(N)=O)C3=C(C(=O)C(C)=C(N)C3=O)N1C[C@@H]1N[C@@H]12 [Mitomycin C, reference compound]
MST (Leukemia P388; [10]): 21.0 days | T/C (Leukemia P388; P388, 0.08 mg/kg/day, qd 1→9, ip): 114% | T/C (Leukemia P388; P388, 0.16 mg/kg/day, qd 1→9, ip): 143% | T/C (Leukemia P388; P388, 0.31 mg/kg/day, qd 1→9, ip): 152% | T/C (Leukemia P388; [10]): 200% | T/C (Leukemia P388; P388, 1.3 mg/kg/day, qd 1→9, ip): 200% | Average weight change on day 5 (Melanoma B16 [4]; [11]): +1.0 g | Average weight change on day 5 (Melanoma B16 [4]; [12]): +0.4 g | MST (Melanoma B16 [4]; [12]): 22.0 days | Average weight change on day 5 (Melanoma B16 [4]; [13]): +0.6 g | MST (Melanoma B16 [4]; [13]): 27.0 days | T/C (Melanoma B16 [4]; [11]): 100% | T/C (Melanoma B16 [4]; [12]): 128% | T/C (Melanoma B16 [4]; [13]): 169%
